Experiments:
α9χα10χW55T = biological target: T1, α9χα10χW55T (UniProt P23979+P43144+Q9JLB5, L231I/L232I/W81T); test: [3H]-α-BTX radioligand binding, membranes of transfected tsA201 cells; parameters: species or system rat; conditions: ACh 1 mM alone vs standard mixture of nonradioactive ligands
T1 construct: containing the extracellular N-terminal domain of the α9 or α10 subunit fused to the transmembrane and intracellular domain of the mouse 5-HT3A subunit; mouse 5-HT3A subunit transmembrane and intracellular domain (fusion partner); expressed in transfected cells; host or cells: tsA201 (derived from human embryonic kidney 293), transient transfection; membrane preparations
Protocol: (§1) Chimeric subunit cDNAs containing the extracellular N-terminal domain of the α9 or α10 subunit fused to the transmembrane and intracellular domain of the mouse 5-HT3A subunit have been described previously ([Baker et al., 2004]). The mammalian cell line tsA201 (derived from the human embryonic kidney 293 cell line) was obtained from Dr. William Green (University of Chicago, Chicago). Cells were cultured in Dulbecco’s modified Eagle’s medium (Invitrogen, Paisley, United Kingdom) containing 2 mM L-GlutaMAX (Invitrogen) plus 10% heat-inactivated fetal calf serum (Sigma, Poole, United Kingdom) with penicillin (100 U/ml) and streptomycin (100 µg/ml) and were maintained in a humidified incubator containing 5% CO2 at 37°C. Cells were transiently transfected using Effectene transfection reagent (QIAGEN, Crawley, United Kingdom) according to the manufacturer’s instructions. In all cases, cells were transfected overnight and assayed for expression approximately 40–48 hours after transfection. To ensure that the levels of radioligand binding were not influenced by differences in the amount of subunit cDNA expressed, the amount of each subunit plasmid DNA and also the total amount of plasmid DNA were kept constant when subunits were expressed singly and in combination. This was achieved by the inclusion of empty plasmid expression vector when single subunits were transfected.
(§2) Binding studies with [^3H]-α-bungarotoxin (α-BTX) in cell membrane preparations were performed essentially as described previously ([Lansdell and Millar, 2000]; [Harkness and Millar, 2002]). Membranes (typically, 10–100 µg of protein) were incubated with radioligand (final concentration 20 nM) for 150 minutes at 4°C in a total volume of 300 µl in the presence of protease inhibitors leupeptin (2 µg/ml) and pepstatin (1 µg/ml). Our standard protocol for determining nonspecific binding was the addition of 1 mM carbachol, 1 mM nicotine, and 10 µM methyllycaconitine to triplicate samples. […] In all cases the levels of specific binding were determined by subtracting the level of nonspecific binding from the total binding (both of which were determined in triplicate). The data were determined as means of three independent experiments, each performed in triplicate. Radioligand binding was assayed by filtration onto 0.5% polyethylenimine-presoaked Whatman GF/B filters (Sigma-Aldrich, Dorset, England) followed by rapid washing (typically, five washes, each of 4 ml) with ice-cold 10 mM phosphate buffer using a Brandel cell harvester, and radioactivity was determined by scintillation counting. […] Protein concentrations were determined using bovine serum albumin standards (Bio-Rad, Hercules, CA).

[1] = biological target: T2, α9χα10χ (α9 and α10 extracellular domains fused to 5-HT3A) (UniProt P23979+P43144+Q9JLB5, L231I/L232I); test: as above; parameters: species or system rat; conditions: ACh 1 mM alone vs standard mixture of nonradioactive ligands
T2 construct: the extracellular N-terminal domain of the α9 or α10 subunit; expressed in transfected cells; host or cells: tsA201 cells (HEK293-derived), membrane preparation
Protocol: as §1, §2

rat α9CC/SSα10 receptor = rat α9CC/SSα10 receptor (Rattus norvegicus, UniProt P43144+Q9JLB5, C219S/C220S); test: ACh-evoked currents, two-electrode voltage clamp in Xenopus laevis oocytes; type: cell-based
Text: (§3) cDNAs encoding Gallus gallus (chick) or Rattus norvegicus (rat) α9 and α10 nAChR subunits were subcloned into a modified pGEMHE vector for expression studies in Xenopus laevis oocytes. Capped cRNAs were in vitro transcribed from linearized plasmid DNA templates using RiboMAX Large Scale RNA Production System (Promega, Madison, WI). Mutant subunits were produced using Quick Change XL II kit (Stratagene, La Jolla, CA). Amino acid sequences of rat and chicken α9, α10, and Torpedo α1 subunits were aligned using ClustalW (EMBL-EBI, Wellcome Genome Campus, Hinxton, Cambridgeshire). Residues were numbered according to the corresponding Torpedo α1 subunit mature protein ([Karlin, 2002]).
(§4) The maintenance of Xenopus laevis and the preparation and cRNA injection of stage V and VI oocytes have been described in detail elsewhere ([Verbitsky et al., 2000]). Typically, oocytes were injected with 50 nl of RNase-free water containing 0.01–1.0 ng of cRNA (at a 1:1 molar ratio when pairwise combined) and maintained in Barth’s solution at 18°C. Electrophysiological recordings were performed 2–6 days after cRNA injection under two-electrode voltage clamp with an Oocyte Clamp OC-725B or C amplifier (Warner Instruments Corp., Hamden, CT). Recordings were filtered at a corner frequency of 10 Hz using a 900BT Tunable Active Filter (Frequency Devices Inc., Ottawa, IL). Data acquisition was performed using a Patch Panel PP-50 LAB/1 interface (Warner Instruments Corp.) at a rate of 10 points per second. Both voltage and current electrodes were filled with 3 M KCl and had resistances of ∼1 MΩ. Data were analyzed using Clampfit from the pClamp 6.1 software (Molecular Devices, Sunnyvale, CA). During electrophysiological recordings, oocytes were continuously superfused (∼15 ml/min) with normal frog saline composed of: 115 mM NaCl, 2.5 mM KCl, 1.8 mM CaCl2, and 10 mM HEPES buffer, pH 7.2. […] Unless otherwise indicated, the membrane potential was clamped to −70 mV. To minimize activation of the endogenous Ca^2+ sensitive chloride current ([Elgoyhen et al., 2001]), all experiments were performed in oocytes incubated with the Ca^2+ chelator 1,2-bis(2-aminophenoxy)ethane-N,N,N′,N′-tetraacetic acid (acetoxymethyl ester) (100 µM) for 3 hours before electrophysiological recordings.
(§5) Concentration-response curves were normalized to the maximal agonist response in each oocyte. The mean and S.E.M. values of the responses are represented. Agonist concentration-response curves were iteratively fitted, using Prism 5 software (GraphPad Software Inc., La Jolla, CA), with the equation: I/Imax = A^nH/(A^nH + EC50^nH), where I is the peak inward current evoked by the agonist at concentration A; Imax is the current evoked by the concentration of the agonist eliciting a maximal response; EC50 is the concentration of the agonist inducing a half-maximal current response; and nH is the Hill coefficient. Data were analyzed using Clampfit from the pClamp 6.1 software.

rat α9α10CC/SS receptor = rat α9α10CC/SS receptor (Rattus norvegicus, UniProt P43144+Q9JLB5, C218S/C219S); test: as above; type: cell-based
Text: as §3, §4, §5

rat α9α10Y190T receptor = rat α9α10Y190T receptor (Rattus norvegicus, UniProt P43144+Q9JLB5, Y216T); test: as above; type: cell-based
Text: as §3, §4, §5

[2] = biological target: rat α9α10 nAChR (wild type) (Rattus norvegicus, UniProt P43144+Q9JLB5); test: ACh-evoked currents, two-electrode voltage clamp in Xenopus laevis oocytes, wild-type receptor; type: cell-based; conditions: −70 mV
Text: as §3
The maintenance of Xenopus laevis and the preparation and cRNA injection of stage V and VI oocytes have been described in detail elsewhere ([Verbitsky et al., 2000]). Typically, oocytes were injected with 50 nl of RNase-free water containing 0.01–1.0 ng of cRNA (at a 1:1 molar ratio when pairwise combined) and maintained in Barth’s solution at 18°C. […] Data were analyzed using Clampfit from the pClamp 6.1 software (Molecular Devices, Sunnyvale, CA). […]
Concentration-response curves were normalized to the maximal agonist response in each oocyte. […] Data were analyzed using Clampfit from the pClamp 6.1 software.

T2 sequence (P23979 whole entry, looked up, the tested form may be a part): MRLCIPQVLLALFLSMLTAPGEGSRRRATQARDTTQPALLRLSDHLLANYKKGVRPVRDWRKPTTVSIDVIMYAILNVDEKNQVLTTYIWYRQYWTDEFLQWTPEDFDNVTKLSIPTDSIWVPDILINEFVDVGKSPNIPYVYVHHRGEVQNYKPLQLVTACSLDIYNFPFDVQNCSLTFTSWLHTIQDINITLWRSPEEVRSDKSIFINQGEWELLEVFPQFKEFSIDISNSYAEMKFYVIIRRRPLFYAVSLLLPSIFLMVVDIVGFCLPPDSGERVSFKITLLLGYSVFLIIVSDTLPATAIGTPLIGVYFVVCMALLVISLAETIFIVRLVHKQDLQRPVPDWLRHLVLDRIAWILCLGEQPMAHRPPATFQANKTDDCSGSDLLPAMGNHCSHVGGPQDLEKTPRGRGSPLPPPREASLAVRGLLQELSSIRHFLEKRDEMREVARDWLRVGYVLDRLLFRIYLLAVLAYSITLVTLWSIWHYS
T2 sequence (P43144 whole entry, looked up, stated change not applied, the tested form may be a part): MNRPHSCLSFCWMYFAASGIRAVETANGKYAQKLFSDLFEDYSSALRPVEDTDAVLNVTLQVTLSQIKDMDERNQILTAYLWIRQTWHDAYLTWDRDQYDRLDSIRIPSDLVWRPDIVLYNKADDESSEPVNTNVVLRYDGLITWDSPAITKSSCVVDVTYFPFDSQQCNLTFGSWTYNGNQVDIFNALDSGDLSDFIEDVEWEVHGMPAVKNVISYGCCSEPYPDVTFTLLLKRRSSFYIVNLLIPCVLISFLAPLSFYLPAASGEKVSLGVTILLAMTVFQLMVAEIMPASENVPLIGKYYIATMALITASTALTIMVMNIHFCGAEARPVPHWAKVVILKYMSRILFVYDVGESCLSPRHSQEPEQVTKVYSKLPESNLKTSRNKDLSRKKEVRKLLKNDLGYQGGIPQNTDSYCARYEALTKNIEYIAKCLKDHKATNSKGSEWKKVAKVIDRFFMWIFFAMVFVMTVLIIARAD
T2 sequence (Q9JLB5 whole entry, looked up, stated change not applied, the tested form may be a part): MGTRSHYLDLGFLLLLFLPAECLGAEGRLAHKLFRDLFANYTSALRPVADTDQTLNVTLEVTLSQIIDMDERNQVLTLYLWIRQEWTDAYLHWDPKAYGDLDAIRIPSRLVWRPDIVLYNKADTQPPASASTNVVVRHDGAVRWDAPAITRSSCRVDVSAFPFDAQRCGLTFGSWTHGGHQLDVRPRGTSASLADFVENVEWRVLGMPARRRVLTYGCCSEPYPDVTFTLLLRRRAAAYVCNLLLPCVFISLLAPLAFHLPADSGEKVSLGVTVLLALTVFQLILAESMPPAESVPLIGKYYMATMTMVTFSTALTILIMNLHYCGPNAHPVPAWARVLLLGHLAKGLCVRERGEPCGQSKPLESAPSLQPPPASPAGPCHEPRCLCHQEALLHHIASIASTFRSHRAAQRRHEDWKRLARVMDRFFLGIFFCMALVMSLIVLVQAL
T1 sequence (P23979 whole entry, looked up, stated change not applied, the tested form may be a part): as the sequence (P23979 whole entry, looked up, the tested form may be a part) above
T1 sequence (P43144 whole entry, looked up, stated change not applied, the tested form may be a part): as the sequence (P43144 whole entry, looked up, stated change not applied, the tested form may be a part) above
T1 sequence (Q9JLB5 whole entry, looked up, stated change not applied, the tested form may be a part): as the sequence (Q9JLB5 whole entry, looked up, stated change not applied, the tested form may be a part) above
Chain of rat α9α10Y190T receptor (P43144 26-479): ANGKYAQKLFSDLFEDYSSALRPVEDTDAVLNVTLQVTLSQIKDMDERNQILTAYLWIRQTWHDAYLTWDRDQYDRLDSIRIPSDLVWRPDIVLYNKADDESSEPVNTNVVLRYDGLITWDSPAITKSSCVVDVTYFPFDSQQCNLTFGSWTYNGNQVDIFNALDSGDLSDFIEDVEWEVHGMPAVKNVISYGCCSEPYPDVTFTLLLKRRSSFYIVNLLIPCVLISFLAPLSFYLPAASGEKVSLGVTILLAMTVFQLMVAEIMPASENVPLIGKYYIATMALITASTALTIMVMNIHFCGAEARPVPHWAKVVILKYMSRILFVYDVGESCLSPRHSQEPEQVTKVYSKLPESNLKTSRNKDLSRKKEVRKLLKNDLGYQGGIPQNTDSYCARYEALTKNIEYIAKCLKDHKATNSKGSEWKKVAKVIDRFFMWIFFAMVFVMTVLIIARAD
Chain of rat α9α10Y190T receptor (Q9JLB5 25-447 Y216T): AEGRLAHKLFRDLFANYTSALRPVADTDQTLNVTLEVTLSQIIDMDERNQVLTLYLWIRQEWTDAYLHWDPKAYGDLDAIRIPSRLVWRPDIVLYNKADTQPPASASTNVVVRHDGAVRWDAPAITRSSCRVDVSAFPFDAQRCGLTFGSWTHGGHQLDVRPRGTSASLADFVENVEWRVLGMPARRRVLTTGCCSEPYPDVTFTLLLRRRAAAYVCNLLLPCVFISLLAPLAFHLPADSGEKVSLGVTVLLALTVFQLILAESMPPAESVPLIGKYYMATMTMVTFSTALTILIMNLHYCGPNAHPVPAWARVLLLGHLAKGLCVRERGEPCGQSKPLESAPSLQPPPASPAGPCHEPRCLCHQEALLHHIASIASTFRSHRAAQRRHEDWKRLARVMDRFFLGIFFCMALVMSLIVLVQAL
Chain of rat α9α10CC/SS receptor (P43144 26-479, stated change not applied): as the sequence (P43144 26-479) above
Chain of rat α9α10CC/SS receptor (Q9JLB5 25-447 C218S/C219S): as the sequence (Q9JLB5 25-447 Y216T) above, with T192Y, C194S, C195S counted along it
Chain of rat α9α10 nAChR (wild type) (P43144 26-479): as the sequence (P43144 26-479) above
Chain of rat α9α10 nAChR (wild type) (Q9JLB5 25-447): as the sequence (Q9JLB5 25-447 Y216T) above, with T192Y counted along it
Chain of rat α9CC/SSα10 receptor (P43144 26-479 C219S/C220S): as the sequence (P43144 26-479) above, with C194S, C195S counted along it
Chain of rat α9CC/SSα10 receptor (Q9JLB5 25-447, stated change not applied): as the sequence (Q9JLB5 25-447 Y216T) above, with T192Y counted along it

## CC(=O)OCC[N+](C)(C)C [ACh, acetylcholine]
α9χα10χW55T
  Displacement of bound [3H]-α-BTX by ACh: displaced as efficiently with ACh alone as with our standard mixture of nonradioactive competing ligands
[1]
  Displacement of bound [3H]-α-BTX by ACh: displaced as efficiently with ACh alone as with our standard mixture of nonradioactive competing ligands
Rat α9CC/SSα10 receptor
  Imax (maximal evoked current): 402 ± 103 nA
Rat α9α10CC/SS receptor
  Imax (maximal evoked current): 571 ± 113 nA
Rat α9α10Y190T receptor
  Imax (maximal evoked current): 336 ± 91 nA
[2]
  Imax (maximal evoked current): 298 ± 48 nA
